Source: patent US20100267561A1, “HERBICIDAL PYRIDAZINONE DERIVATIVES” (priority 2007, published 2010)

Legend:
Assay in all cases: Test B pre-/postemergence plant response
Format in all cases: in vivo
[1] = test system: large crabgrass (Digitaria sanguinalis); conditions: for Crabgrass, Large plant response rating: 8 g ai/ha
Method in brief: (§1)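 Seeds were sown and sprayed preemergence, while plants at 2 to 18 cm (1- to 4-leaf stage) got postemergence sprays. Compounds were formulated in a non-phytotoxic solvent mixture with surfactant. After 13 to 15 days in a greenhouse, injury was rated visually against untreated controls, 0 (no effect) to 100 (complete control).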

[2] = test system: green foxtail (Setaria viridis); conditions: for Foxtail, Green plant response rating: 8 g ai/ha
Method in brief: as §1

[3] = test system: common ragweed (Ambrosia elation); conditions: for Ragweed plant response rating: 8 g ai/ha
Method in brief: as §1

[4] = test system: woolly cupgrass (Eriochloa villosa); conditions: for Cupgrass, Woolly plant response rating: 8 g ai/ha
Method in brief: as §1

[5] = test system: lambsquarters (Chenopodium album); conditions: for Lambsquarters plant response rating: 8 g ai/ha
Method in brief: as §1

[6] = test system: catchweed bedstraw (Galium aparine); conditions: Preemergence
Method in brief: as §1

[7] = test system: pigweed (Amaranthus retroflexus); conditions: for Pigweed plant response rating: 8 g ai/ha
Method in brief: as §1

[8] = test system: blackgrass (Alopecurus myosuroides)
Method in brief: as §1

corn (Zea mays) = conditions: for Corn plant response rating: 8 g ai/ha
Method in brief: as §1

kochia (Kochia scoparia) = conditions: for Kochia plant response rating: 8 g ai/ha
Method in brief: as §1

[9] = test system: yellow nutsedge (Cyperus esculentus); conditions: for Nutsedge, Yellow plant response rating: 8 g ai/ha
Method in brief: as §1

[10] = test system: velvetleaf (Abutilon theophrasti); conditions: for Velvetleaf plant response rating: 8 g ai/ha
Method in brief: as §1

wild oat (Avena fatua) = conditions: for Oat, Wild plant response rating: 8 g ai/ha
Method in brief: as §1

[11] = test system: cocklebur (Xanthium strumarium); conditions: for Cocklebur plant response rating: 8 g ai/ha
Method in brief: as §1

[12] = Postemergence, 16 g ai/ha, scale 0 to 100
[13] = Postemergence, 31 g ai/ha, scale 0 to 100
[14] = Postemergence, 62 g ai/ha, scale 0 to 100, 0 no effect, 100 complete control
[15] = Preemergence, 16 g ai/ha, scale 0 to 100 (0 no effect, 100 complete control)
[16] = Preemergence, 31 g ai/ha, 0 to 100 scale, 0 no effect, 100 complete control
[17] = Preemergence, 62 g ai/ha, scale 0 to 100
[18] = Preemergence, 31 g ai/ha, scale 0 to 100 (0 no effect, 100 complete control)

Cn1ncc(O)c(-n2nc(-c3ccc(Cl)cc3)cc2C2CC2)c1=O [Compound 45]
98: Plant response rating, Blackgrass [8, 15] | Plant response rating, Corn (corn (Zea mays); [17]) | Plant response rating, Oat, Wild (wild oat (Avena fatua); [12])
0: Plant response rating, Crabgrass, Large [1, 15] | Plant response rating, Crabgrass, Large [1, 16] | Plant response rating, Crabgrass, Large [1, 17] | Crabgrass, Large plant response rating ([1]; Preemergence, scale 0 to 100) | Ragweed plant response rating ([3]; postemergence, 0-100 scale) | Plant response rating, Ragweed [3, 12] | Plant response rating, Ragweed [3, 13] | Plant response rating, Ragweed [3, 14] | Plant response rating, Ragweed [3, 15] | Plant response rating, Ragweed [3, 18] | Plant response rating, Ragweed [3, 17] | Ragweed plant response rating ([3]; Preemergence, scale 0 to 100) | Plant response rating, Cupgrass, Woolly [4, 15] | Plant response rating, Cupgrass, Woolly [4, 17] | Cupgrass, Woolly plant response rating ([4]; Preemergence, scale 0 to 100) | Lambsquarters plant response rating ([5]; postemergence, 0-100 scale) | Plant response rating, Lambsquarters [5, 12] | Plant response rating, Lambsquarters [5, 13] | Plant response rating, Lambsquarters [5, 14] | Plant response rating, Lambsquarters [5, 15] | Plant response rating, Lambsquarters [5, 16] | Plant response rating, Lambsquarters [5, 17] | Lambsquarters plant response rating ([5]; Preemergence, scale 0 to 100) | Plant response rating, Galium ([6]; 16 g ai/ha, scale 0 to 100 (0 no effect, 100 complete control)) | Plant response rating, Galium ([6]; 31 g ai/ha, 0 to 100 scale, 0 no effect, 100 complete control) | Plant response rating, Galium ([6]; 62 g ai/ha, scale 0 to 100) | Galium plant response rating ([6]; 8 g ai/ha, scale 0 to 100) | Pigweed plant response rating ([7]; postemergence, 0-100 scale) | Plant response rating, Pigweed [7, 12] | Plant response rating, Pigweed [7, 13] | Plant response rating, Pigweed [7, 14] | Plant response rating, Pigweed [7, 15] | Plant response rating, Pigweed [7, 18] | Plant response rating, Pigweed [7, 17] | Pigweed plant response rating ([7]; Preemergence, scale 0 to 100) | Blackgrass plant response rating ([8]; 8 g ai/ha, postemergence, 0-100 scale) | Corn plant response rating (corn (Zea mays); Preemergence, scale 0 to 100) | Kochia plant response rating (kochia (Kochia scoparia); postemergence, 0-100 scale) | Plant response rating, Kochia (kochia (Kochia scoparia); [12]) | Plant response rating, Kochia (kochia (Kochia scoparia); [13]) | Plant response rating, Kochia (kochia (Kochia scoparia); [14]) | Plant response rating, Kochia (kochia (Kochia scoparia); [15]) | Plant response rating, Kochia (kochia (Kochia scoparia); [16]) | Plant response rating, Kochia (kochia (Kochia scoparia); [17]) | Kochia plant response rating (kochia (Kochia scoparia); Preemergence, scale 0 to 100) | Nutsedge, Yellow plant response rating ([9]; postemergence, 0-100 scale) | Plant response rating, Nutsedge, Yellow [9, 12] | Plant response rating, Nutsedge, Yellow [9, 13] | Plant response rating, Nutsedge, Yellow [9, 14] | Plant response rating, Nutsedge, Yellow [9, 15] | Plant response rating, Nutsedge, Yellow [9, 18] | Plant response rating, Nutsedge, Yellow [9, 17] | Nutsedge, Yellow plant response rating ([9]; Preemergence, scale 0 to 100) | Velvetleaf plant response rating ([10]; postemergence, 0-100 scale) | Plant response rating, Velvetleaf [10, 12] | Plant response rating, Velvetleaf [10, 13] | Plant response rating, Velvetleaf [10, 14] | Plant response rating, Velvetleaf [10, 15] | Plant response rating, Velvetleaf [10, 18] | Plant response rating, Velvetleaf ([10]; Preemergence, 62 g ai/ha, 0 to 100 scale, 0 no effect, 100 complete control) | Velvetleaf plant response rating ([10]; Preemergence, scale 0 to 100) | Cocklebur plant response rating ([11]; postemergence, 0-100 scale) | Plant response rating, Cocklebur [11, 12] | Plant response rating, Cocklebur [11, 13] | Plant response rating, Cocklebur [11, 14] | Plant response rating, Cocklebur [11, 15] | Plant response rating, Cocklebur [11, 16] | Plant response rating, Cocklebur [11, 17] | Cocklebur plant response rating ([11]; Preemergence, scale 0 to 100)
95: Plant response rating, Foxtail, Green [2, 12] | Plant response rating, Cupgrass, Woolly [4, 12] | Plant response rating, Corn (corn (Zea mays); [13]) | Plant response rating, Corn (corn (Zea mays); [14]) | Plant response rating, Oat, Wild (wild oat (Avena fatua); [17])
85: Cupgrass, Woolly plant response rating ([4]; postemergence, 0-100 scale) | Plant response rating, Blackgrass [8, 13] | Corn plant response rating (corn (Zea mays); postemergence, 0-100 scale)
20: Plant response rating, Blackgrass [8, 12]
80: Plant response rating, Crabgrass, Large [1, 12] | Plant response rating, Oat, Wild (wild oat (Avena fatua); [15])
65: Crabgrass, Large plant response rating ([1]; postemergence, 0-100 scale) | Plant response rating, Corn (corn (Zea mays); [16])
90: Plant response rating, Blackgrass [8, 14] | Plant response rating, Corn (corn (Zea mays); [12]) | Oat, Wild plant response rating (wild oat (Avena fatua); postemergence, 0-100 scale) | Plant response rating, Oat, Wild (wild oat (Avena fatua); [18])
15: Oat, Wild plant response rating (wild oat (Avena fatua); Preemergence, scale 0 to 100)
100: Plant response rating, Crabgrass, Large [1, 13] | Plant response rating, Crabgrass, Large [1, 14] | Plant response rating, Foxtail, Green [2, 13] | Plant response rating, Foxtail, Green [2, 14] | Plant response rating, Foxtail, Green [2, 15] | Plant response rating, Foxtail, Green [2, 16] | Plant response rating, Foxtail, Green [2, 17] | Foxtail, Green plant response rating ([2]; Preemergence, scale 0 to 100) | Plant response rating, Cupgrass, Woolly [4, 13] | Plant response rating, Cupgrass, Woolly [4, 14] | Plant response rating, Blackgrass [8, 16] | Plant response rating, Blackgrass [8, 17] | Plant response rating, Oat, Wild (wild oat (Avena fatua); [13]) | Plant response rating, Oat, Wild (wild oat (Avena fatua); [14])
60: Foxtail, Green plant response rating ([2]; postemergence, 0-100 scale)
55: Plant response rating, Corn (corn (Zea mays); [15])
